In patent US20200246331A1, “Pharmaceutical combinations and their use” (Novartis AG, priority 2015, published 2020):
Like-named read-outs stand apart in the source and are kept apart here.

Key:
Format in all cases: cell-based
Mel270 UM cell line = assay: 72 hr CellTiter-Glo cell proliferation assay, Mel270; details: read-out: IC50 single agent activity
Protocol: (§1) Next, luminescence was recorded using the plate reader.

Mel202 UM cell line = assay: 72 hr CellTiter-Glo cell proliferation assay, Mel202; details: read-out: IC50 single agent activity
Protocol: as §1

Mel285 UM cell line = assay: 72 hr CellTiter-Glo cell proliferation assay, Mel285; details: read-out: IC50 single agent activity
Protocol: as §1

UM 92.1 cell line = assay: 72 hr CellTiter-Glo cell proliferation assay, 92.1; details: for IC50: 92.1 cell line, 72 hr CTG, read-out: IC50 single agent activity
Protocol: as §1
The percent growth inhibition and excess inhibition were analysed using the Chalice software (CombinatoRx, Cambridge Mass.). […] All remaining points in the grids display results from a combination of the two inhibitors that correspond to the single agent concentrations denoted on the two axes. Data analysis of cell proliferation was performed using Chalice Analyser as described in (Lehar et al. 2009). Excess inhibition was calculated using the Loewe synergy model which measures the effect on growth relative to what would be expected if two drugs behave in a dose additive manner. Positive numbers represent areas of increasing synergy.

OMM2.5 UM cell line = assay: 72 hr CellTiter-Glo cell proliferation assay, OMM2.5; details: read-out: IC50 single agent activity
Protocol: as §1

| Compound | IC50 (Mel270 UM cell line; Mel270 cell line, 72 hr CTG) | IC50 (Mel202 UM cell line; Mel202 cell line, 72 hr CTG) | IC50 (Mel285 UM cell line; Mel285 cell line, 72 hr CTG) | IC50 (UM 92.1 cell line) | IC50 (OMM2.5 UM cell line; OMM2.5 cell line, 72 hr CTG) | IC50 (Mel270 UM cell line; 72 h) | IC50 (Mel202 UM cell line; Mel202, 72 h) | IC50 (Mel285 UM cell line; 72 h) | IC50 (OMM2.5 UM cell line; 72 h) | efficacy as single agent compared with the other PKC inhibitor (UM 92.1 cell line; one UM cell line, single agent) |
| --- | --- | --- | --- | --- | --- | --- | --- | --- | --- | --- |
| COc1cc2c(cc1OC(C)C)[C@H](c1ccc(Cl)cc1)N(c1ccc(N(C)C[C@H]3CC[C@H](N4CCN(C)C(=O)C4)CC3)cc1)C(=O)C2 [Compound A, (S)-1-(4-Chloro-phenyl)-7-isopropoxy-6-methoxy-2-(4-{methyl-[4-(4-methyl-3-oxo-piperazin-1-yl)-trans-cyclohexylmethyl]-amino}-phenyl)-1,4-dihydro-2H-isoquinolin-3-one] | 362 nM | 401 nM | 1260 nM | 667 nM | 2570 nM |  |  |  |  |  |
| COc1ncc(-c2nc3c(n2C(C)C)[C@H](c2ccc(Cl)cc2)N(c2cc(Cl)cn(C)c2=O)C3=O)c(OC)n1 [Compound B, (S)-5-(5-Chloro-1-methyl-2-oxo-1,2-dihydro-pyridin-3-yl)-6-(4-chloro-phenyl)-2-(2,4-dimethoxy-pyrimidin-5-yl)-1-isopropyl-5,6-dihydro-1H-pyrrolo[3,4-d]imidazol-4-one] |  |  |  | 86 nM |  | 34 nM | 60 nM | 167 nM | 249 nM |  |
| CC1(N)CCN(c2cccnc2NC(=O)c2nc(-c3ncccc3C(F)(F)F)cnc2N)CC1 [Compound D, 3-amino-N-(3-(4-amino-4-methylpiperidin-1-yl)pyridin-2-yl)-6-(3-(trifluoromethyl)pyridin-2-yl)pyrazine-2-carboxamide] |  |  |  |  |  |  |  |  |  | more effective as a single agent |
